Entries after “also recorded” stand apart in the source; their conditions may differ. Non-standard residues stand in square brackets, D forms with d. No end group written: not given here.
Assays:
[1] = test system: myelopoiesis progenitor cells in the blood; test: Colony-forming unit (CFU) assay, progenitor cells in blood of osteoporosis animal models; format: in vivo, mouse; conditions: OVX mice, 50 μg/kg i.p. twice a day for 4 weeks, blood 1 hour after last dose
Procedure: To make an osteoporosis model, 10-18 12 weeks old female mice per group underwent ovarian ablation. A week later, 50 μg/kg of NPY(21-28), NPY D^25(21-28), NPY D^26(21-28), NPY D^25,26(21-28), Osteopep2, NPY and 100 μl of PBS(Gibco) were intraperitoneally administered twice a day for 4 weeks at 12 hour intervals. Alendronate (Sigma), used as a competitive drug, was intraperitoneally administered once a week for 4 weeks at a dose of 50 μg/kg. As a control group, only Sham model of osteoporosis was performed by subcutaneous dissection of female mouse. Mice were placed in experimental groups using the Block randomization method, and all mouse experiments were approved through the Kyungpook National University Institutional Animal Care and Use Committee. CFU analysis was performed to determine the number of bone marrow hematopoietic progenitor cells in the blood of mice. After anesthetizing the mouse first, 500 μl to 700 μl of blood were collected in a heparin tube by cardiac drawing, and then placed in ammonium chloride solution (Stem Cell Technologies, Inc. 1:10) and placed on ice for 15 minutes to remove red blood cells. The red blood cells were well shaken at intervals of 2 to 3 minutes and centrifuged at 1000 rpm for 7 minutes. The supernatant was removed and washed with IMDM (Gibco) supplied with 2% fetal bovine serum (FBS, Gibco). The washed cells (3×10^5 per mouse) were divided into three 35 mm dishes containing methylcellulose-based media (Methocult, Stem cell), and after the cells were incubated for two weeks, the number of colonies formed in the flask was counted. In order to investigate whether the NPY (21-28) of the present invention affects the blood release of myelopoiesis stem cells in the animal models of osteoporosis, the following experiments were carried out according to the methods of Examples 1-1, 1-3, 1-4, and 1-5. In order to make animal models of osteoporosis, 12 weeks old C57BL/6 female mice were subjected to ovarian ablation for 10 to 18 animals in each group. One week later, 50 μg/kg of NPY (21-28) and 100 μl of PBS (Gibco) were intraperitoneally administered twice a day for 4 weeks at 12 hour intervals. As a control group, mice that underwent only subcutaneous incisions in normal mice were used. Weight change was measured weekly, and bone marrow and blood were collected one hour after the last dose at 4 weeks, and the release of myelopoiesis progenitor and stem cells into blood was analyzed. The positive control group, NPY (21-36), Osteopep2 and full length NPY (50 μg/kg, intraperitoneally administered twice a day for 4 weeks) were used. Alendronate used as a competitive drug for osteoporosis treatment was intraperitoneally administered at a dose of 50 μg/kg for 4 weeks once a week. […]

[2] = test system: adhesion factors of hematopoietic stem cell in bone marrow (Sdf-1a, KitI, Angpt1); test: expression of adhesion factors in bone marrow of osteoporosis animal models, real-time quantitative PCR; format: in vivo, mouse; conditions: OVX mice, 50 μg/kg i.p. twice a day for 4 weeks; bone marrow 1 hour after last administration
Procedure: To make an osteoporosis model, 10-18 12 weeks old female mice per group underwent ovarian ablation. A week later, 50 μg/kg of NPY(21-28), NPY D^25(21-28), NPY D^26(21-28), NPY D^25,26(21-28), Osteopep2, NPY and 100 μl of PBS(Gibco) were intraperitoneally administered twice a day for 4 weeks at 12 hour intervals. Alendronate (Sigma), used as a competitive drug, was intraperitoneally administered once a week for 4 weeks at a dose of 50 μg/kg. As a control group, only Sham model of osteoporosis was performed by subcutaneous dissection of female mouse. Mice were placed in experimental groups using the Block randomization method, and all mouse experiments were approved through the Kyungpook National University Institutional Animal Care and Use Committee.
Real-time quantitative PCR was used to measure expression levels of hematopoietic stem cell adhesion factors (Sdf-1a, KitI, Angpt1) present in osteoblasts. Total RNA was extracted from cell eluate and bone marrow cells using the RNeasy Plus mini kit (Qiagen, Korea, Ltd), and cDNAs were synthesized from 5 μg total RNA using a kit in Clontech (Mountain View, Calif.). In addition, using a Corbett research RG-6000 real-time PCR instrument, Real-time quantitative PCR was performed at 95° C. for 10 minutes; at 95° C., for 10 seconds; at 58° C., for 15 seconds; at 72° C. for 20 seconds as one cycle, and 40 cycles were repeated.
In order to investigate whether the NPY (21-28) of the present invention affects the blood release of myelopoiesis stem cells in the animal models of osteoporosis, the following experiments were carried out according to the methods of Examples 1-1, 1-3, 1-4, and 1-5. In order to make animal models of osteoporosis, 12 weeks old C57BL/6 female mice were subjected to ovarian ablation for 10 to 18 animals in each group. […] Weight change was measured weekly, and bone marrow and blood were collected one hour after the last dose at 4 weeks, and the release of myelopoiesis progenitor and stem cells into blood was analyzed. […]

Substance	releasing myelopoiesis progenitor cells into blood (CFU assay) [1]	expression levels of major adhesion factors Sdf-1a, KitI, and Angpt1 in bone marrow [2]	releasing myelopoiesis progenitor cells into blood (CFU assay) ([1]; listed as NPY D^25,26 (21-28))
NPY D^25(21-28): peptide in which arginine, the fifth amino acid of the amino acid sequence of NPY (21-28), is modified to D-type (YSAL[dR]HYI)	increases	decreased; also recorded: generally superior to those of NPY	
NPY D^25,26(21-28): peptide in which both the fifth and sixth amino acids of NPY (21-28) are modified to D-form (YSAL[dR][dH]YI)	increases	decreased; also recorded: generally superior to those of NPY	highest efficiency; also recorded: even better than that of NPY (21-28)
YSALRHYI [NPY (21-28)]	increases; also recorded: superior to Osteopep2 and NPY	decreased	
